In one experiment the target is T1, human Syk (GST-Syk) (Homo sapiens, UniProt P43405).
T1 construct: A cDNA fragment encoding human Syk openreading frame was cloned; made in house; host or cells: Sf21 insect cells (baculovirus, transfer vector pAcG2T)
The experiment can be described thus: Syk tyrosine kinase inhibitory assay. The conditions noted are these: Table 11; read-out: Activity grade. In kind it is biochemical. An excerpt: [Syk Tyrosine Kinase Inhibitory Assay]
(1) Preparation of Syk Protein
A cDNA fragment encoding human Syk openreading frame was cloned from total RNA of human Burkitt's lymphoma B cell lines, Raji (American Type Culture Collection), with the use of RT-PCR method. The cDNA fragment was inserted into pAcG2T (Pharmingen, San Diego, Calif.) to construct a baculovirus transfer vector. Then the vector, together with the linearized baculovirus (BaculoGold™, Pharmingen), was used to transfect Sf21 cells (Invitrogen, San Diego, Calif.).
Generated recombinant baculovirus was cloned and amplified in Sf21 cells. Sf21 cells were infected with this amplified high titer virus to produce a chimeric protein of Syk kinase fused by glutathione-S-transferase (GST).
The resulting GST-Syk was purified with the use of glutathione column (Amersham Pharmacia Biotech AB, Uppsala, Sweden) according to the manufacturer's instruction.
(2) Synthesize of a Peptide
Next, a peptide fragment of 30 residues including two tyrosine residues, […], was synthesized by a peptide synthesizer. The N-terminal of the fragment was then biotinylated to obtain biotinylated activation loop peptide (AL).
(3) The Measurement of Syk Tyrosine Kinase Activity
All reagents were diluted with the Syk kinase assay buffer (50 mM Tris-HCl (pH 8.0), 10 mM MgCl2, 0.1 mM Na3VO4, 0.1% BSA, 1 mM DTT). First, a mixture (35 μl) including […] of GST-Syk and 0.5 μg of AL was put in each well in 96-well plates. Then 5 μl of a test compound in the presence of 2.5% dimethylsulfoxide (DMSO) was added to each well. To this mixture was added […] (10 μl) to initiate the kinase reaction. The final reaction mixture (50 μl) consists of 0.65 nM GST-Syk, 3 μM AL, 30 μM ATP, a test compound, 0.25% DMSO, and a Syk kinase assay buffer.
The mixture was incubated for 1 hr at room temperature, and the reaction was terminated by the addition of 120 μl of termination buffer (50 mM Tris-HCl (pH 8.0), 10 mMEDTA, 500 mM NaCl, 0.1% BSA). The mixture was transferred to streptavidin-coated plates and incubated for 30 min at room temperature to combine biotin-AL to the plates. After washing the plates with Tris-buffered saline (TBS) (50 mM Tris-HCl (pH 8.0), 138 mM NaCl, 2.7 mM KCl) containing 0.05% Tween-20 for 3 times, 100 μl of antibody solution consisting of 50 mM Tris-HCl (pH 8.0), 138 mM NaCl, 2.7 mM KCl, 1% BSA, 60 ng/ml anti-phosphotyrosine monoclonal antibody, 4G10 (Upstate Biotechnology), which is labeled with europium by Amersham Pharmacia's kit in advance, was added and incubated at room temperature for 60 min. After washing, 100 μl of enhancement solution (Amersham pharmacia Biotech) was added and then time-resolved fluorescence was measured by multi-label counter ARVO (Wallac Oy, Finland) at 340 nm for excitation and 615 nm for emission with 400 msec of delay and 400 msec of window.
As for `COc1cc(-c2cc3nccn3c(Nc3cccc(S(C)(=O)=O)c3)n2)ccc1N1CCOCC1` [Example 12-60], the IC50 was below 500 nM.
Still for that read-out and setting: the value for `COc1cc(-c2cc3nccn3c(Nc3ccc4cn[nH]c4c3)n2)ccc1N1CCOCC1` [Example 12-59] was below 500 nM; that for `COc1ccc(Nc2nc(-c3ccc(N(C)CCCN4CCOCC4)c(OC)c3)cc3nccn23)cc1` [Example 12-55] was below 500 nM.
For `COc1ccc(Nc2nc(-c3ccc(N4CCOCC4)c(OC)c3)cc3nccn23)cc1` [Example 12-37], the IC50 was below 500 nM.
Still for that read-out and setting: the value for `COCCN(C)c1ccc(-c2cc3nccn3c(Nc3ccc(C)cc3)n2)cc1OC` [Example 12-42] was below 500 nM.
For the compound `COc1ccc(-c2cc3nccn3c(Nc3ccc(Cl)nc3)n2)cc1OC` [Example 12-30], the IC50 was below 500 nM.
On the same count and under the same terms, the value for `COc1cc(-c2cc3nccn3c(Nc3ccccc3)n2)ccc1OCCCN1CCOCC1` [Example 12-16] was below 500 nM; that for `COc1cc(-c2cc3nccn3c(Nc3ccccc3)n2)ccc1N1CCOCC1` [Example 12-54] was below 500 nM.
Take `COc1cc(-c2cc3nccn3c(Nc3ccc(Cl)cn3)n2)ccc1N1CCOCC1` [Example 12-48]: the IC50 was below 500 nM.
The same measure, in the same setting: the value for `CCOc1ccc2nc(Nc3nc(-c4ccc(OC)c(OC)c4)cc4nccn34)sc2c1` [Example 12-6] was 500 to 2000 nM; that for `COc1cc(-c2cc3nccn3c(Nc3ccccc3)n2)ccc1NCCCN1CCCC1=O` [Example 12-40] was below 500 nM.

Still in this experiment, the particulars now being: Table 13.
As to `CCCCCCSc1nc(-c2ccc(OC)c(OC)c2)cc2nccn12` [Example 14-18], the Activity grade entry is reported as “C-D”.

The experiment is the same for the next values; noted with them: Table 13; read-out: Activity grade.
Regarding `COc1ccc(-c2cc3nccn3c(Sc3ccc(CCC(=O)O)cc3C(N)=O)n2)cc1OC` [Example 14-35], the IC50 was 500 to 2000 nM.
Still for that read-out and setting: the value for `COC(=O)c1cccnc1Nc1nc(-c2ccc(OC)c(OC)c2)cc2nccn12` [Example 14-36] was 2000 to 10000 nM.

The same experiment, now with this note: Table 15; read-out: Activity grade.
Turning to `COc1ccc(-c2cc3nccn3c(Sc3ccc(S(=O)(=O)N4CCCC4)cc3)n2)cc1OC` [Example 16-5], the IC50 is below 500 nM.

The same experiment, now with this note: Table 16; read-out: Activity grade.
Regarding `CCSc1nc(-c2ccc(NCCCN3CCN(C)CC3)c(OC)c2)cc2nccn12` [Example 17-4], the IC50 is below 500 nM.

Staying with this experiment, now noted: Table 17; IC50 classes; read-out: Activity grade.
On to `COc1ccc(-c2cc3nccn3c(N(C)c3ccncc3)n2)cc1OC` [Example 36], for which the IC50 fell in the range of 2000 to 10000 nM.
In the case of `CNC(=O)CCc1ccc(Sc2nc(-c3ccc(OC)c(OC)c3)cc3nccn23)cc1` [Example 21], the IC50 was below 500 nM.
`COc1ccc(-c2cc3nccn3c(Nc3cc(N)ccc3C(N)=O)n2)cc1OC` [Example 11]: the IC50 was below 500 nM.
The same measure, in the same setting: the value for `COc1ccc(-c2cc3nccn3c(Nc3ccc(N(C)C)cc3C(N)=O)n2)cc1OC` [Example 32] was below 500 nM.

Staying with this experiment, now noted: in vitro; compounds as yielded by solid phase synthesis, purity about 40 to 90%.
`COc1cc(-c2cc3nccn3c(Nc3ccccc3S(N)(=O)=O)n2)ccc1OCCN1CCOCC1` [Example 9-97]: the “Activity grade (IC50 class)” value is on record as “C-D”.
The same measure, in the same setting: the value for `CCOC(=O)CN1CCN(c2nc(-c3ccc(OC)c(OC)c3)cc3nccn23)CC1` [Example 9-73] was “C-D”.

Staying with this experiment, now noted: in vitro; compounds as yielded by solid phase synthesis, purity about 40 to 90%; read-out: Activity grade (IC50 class).
As to `COc1ccc(-c2cc3nccn3c(N3CCN(CCO)CC3)n2)cc1OC` [Example 9-51], the IC50 lay in the range of 2000 to 10000 nM.
On the same count and under the same terms, the value for `COc1ccc(Nc2nc(-c3ccc(OCCN4CCOCC4)c(OC)c3)cc3nccn23)c(C(N)=O)c1` [Example 9-95] was below 500 nM; that for `COc1ccc(-c2cc3nccn3c(Nc3cccc(N(C)C)c3)n2)cc1OC` [Example 11-81] was below 500 nM; that for `CCSc1nc(-c2ccc(OC)c(O)c2)cc2nccn12` [Example 4-2] was below 500 nM.
On the same count and under the same terms, the value for `CCOC(=O)CSc1nc(-c2ccc(OC)c(OC)c2)cc2nccn12` [Example 9-89] was 500 to 2000 nM; that for `COc1ccc(-c2cc3nccn3c(Nc3cc(F)c(F)cc3F)n2)cc1OC` [Example 11-40] was below 500 nM.
The same measure, in the same setting: the value for `COc1ccc(-c2cc3nccn3c(N3CCC(N4CCCCC4)CC3)n2)cc1OC` [Example 9-63] was 2000 to 10000 nM.
`COc1ccc(Nc2nc(-c3ccc(OC)c(OC)c3)cc3nccn23)cc1` [Example 11-17]: the IC50 is below 500 nM.
The same measure, in the same setting: the value for `COc1ccc(-c2cc3nccn3c(Nc3ccc(C(=O)NCC(=O)O)cc3)n2)cc1OC` [Example 11-23] was below 500 nM.
Same read-out and setting: the value for `COc1ccc(-c2cc3nccn3c(NC3CCCC[C@@H]3N)n2)cc1OC` (some centres unmarked) [Example 9-86] was 500 to 2000 nM; that for `CCNc1nc(-c2ccc(OC)c(OC)c2)cc2nccn12` [Example 9-11] was below 500 nM.
On to `COc1ccc(-c2cc3nccn3c(Nc3ccccc3S(N)(=O)=O)n2)cc1OC` [Example 11-113], for which the IC50 was below 500 nM.
Same read-out and setting: the value for `COc1ccc(-c2cc3nccn3c(N3CCC(=O)CC3)n2)cc1OC` [Example 9-58] was 500 to 2000 nM; that for `CCSc1nc(-c2cccnc2)cc2nccn12` [Example 8-2] was 2000 to 10000 nM.
In the case of `COc1ccc(Nc2nc(-c3ccc(OC)c(OC)c3)cc3ncnn23)cc1` [Example 11-15], the IC50 is below 500 nM.
The same measure, in the same setting: the value for `COc1ccc(-c2cc3nccn3c(N3CCOCC3)n2)cc1OC` [Example 9-30] was 2000 to 10000 nM; that for `COc1ccc(-c2cc3nccn3c(NCCN3CCCCC3)n2)cc1OC` [Example 9-82] was 2000 to 10000 nM.
Same read-out and setting: the value for `COc1ccc(-c2cc3nccn3c(Nc3cc(N)ccc3C(N)=O)n2)cc1OC` [Example 11] was below 500 nM; that for `COc1cc(-c2cc3nccn3c(Sc3ccc(CCC(=O)O)cc3)n2)ccc1O` [Example 13-27] was below 500 nM; that for `COc1ccc(-c2cc3nccn3c(Nc3cccc(S(=O)(=O)CCO)c3)n2)cc1OC` [Example 11-27] was below 500 nM.
Turning to `COc1ccc(-c2cc3nccn3c(Nc3cccc(N)c3)n2)cc1OC` [Example 11-124], the IC50 is below 500 nM.
Still for that read-out and setting: the value for `COc1ccc(-c2cc3nccn3c(N(C)c3ccc([N+](=O)[O-])cc3)n2)cc1OC` [Example 11-43] was below 500 nM; that for `COc1ccc(Nc2nc(-c3ccc(OC)c(OC)c3)cc3nccn23)c(O)c1` [Example 11-93] was below 500 nM; that for `CCSc1nc(-c2ccc(OCCCN(C)CCO)c(OC)c2)cc2nccn12` [Example 5-3] was below 500 nM.
As for `COc1ccc(-c2cc3nccn3c(N(C)c3ccc(OC(F)(F)F)cc3)n2)cc1OC` [Example 11-46], the IC50 was in the range of 500 to 2000 nM.
On the same count and under the same terms, the value for `COc1ccc(Nc2nc(-c3ccc(OC)c(OC)c3)cc3nccn23)cc1NCCN(C)CCO` [Example 11-112] was 500 to 2000 nM; that for `COc1ccc(-c2cc3nccn3c(N3CCCC(CO)C3)n2)cc1OC` (centres unmarked) [Example 9-65] was 500 to 2000 nM.
The same measure, in the same setting: the value for `COc1ccc(-c2cc3nccn3c(Sc3cccc(Cl)c3Cl)n2)cc1OC` [Example 13-5] was 2000 to 10000 nM.
`CCSc1nc(-c2ccc(OC)c(OCCCN3CCOCC3)c2)cc2nccn12` [Example 5-11]: the IC50 was 500 to 2000 nM.
On the same count and under the same terms, the value for `COc1ccc(-c2cc3nccn3c(Nc3ccc4c(c3)CCC(C(=O)O)C4)n2)cc1OC` (centres unmarked) [Example 11-5] was below 500 nM.
Still for that read-out and setting: the value for `COc1ccc(Nc2nc(-c3ccc(N4CCOCC4)c(OC)c3)cc3nccn23)c(C(N)=O)c1` [Example 9-98] was below 500 nM; that for `CNS(=O)(=O)c1ccccc1Nc1nc(-c2ccc(OC)c(OC)c2)cc2nccn12` [Example 11-122] was below 500 nM.
The same measure, in the same setting: the value for `CCOC(=O)Cc1ccc(Nc2nc(-c3ccc(OC)c(OC)c3)cc3nccn23)cc1` [Example 9-23] was below 500 nM.
Consider `COc1ccc(-c2cc3nccn3c(Nc3ccc(NCCCN4CCOCC4)cc3)n2)cc1OC` [Example 11-90], for which the IC50 is below 500 nM.
`C=CCOc1ccc(-c2cc3nccn3c(SCC)n2)cc1OC` [Example 3-2]: the IC50 was below 500 nM.
Same read-out and setting: the value for `COc1ccc(-c2cc3nccn3c(Nc3ccc(S(=O)(=O)NC(=N)N)cc3)n2)cc1OC` [Example 11-110] was below 500 nM.
The same measure, in the same setting: the value for `COc1ccc(-c2cc3nccn3c(Nc3ccc(S(N)(=O)=O)cc3)n2)cc1OC` [Example 11-76] was below 500 nM.

(Values after patent US6911443B2 (Bayer Aktiengesellschaft, priority 2000, dated 2005).)
